Data published in ChEMBL document CHEMBL1201862, “PubChem BioAssay data set” (2004).
Activity calls are given as the source filed them.

Tests used:
Vero [1] = test: cells; type: functional, cell-based; conditions: Chlorocebus sabaeus
Vero [2] = test: cells; type: functional; conditions: Chlorocebus sabaeus
[3] = luciferase reporter signal suppression in cells – H4 neuroglioma cells, luminescence, dose response (AID 1990); type: functional, cell-based
Aminopeptidase N = target: T1, Aminopeptidase N (Plasmodium falciparum FcB1/Columbia, UniProt O96935); test: malaria alanyl aminopeptidase activity blockers – biochemical, fluorogenic H-Leu-NHMec substrate, 1536-well (AID 1445); set-up: species or system Plasmodium falciparum 3D7, 3D7
T1 sequence (O96935 whole entry): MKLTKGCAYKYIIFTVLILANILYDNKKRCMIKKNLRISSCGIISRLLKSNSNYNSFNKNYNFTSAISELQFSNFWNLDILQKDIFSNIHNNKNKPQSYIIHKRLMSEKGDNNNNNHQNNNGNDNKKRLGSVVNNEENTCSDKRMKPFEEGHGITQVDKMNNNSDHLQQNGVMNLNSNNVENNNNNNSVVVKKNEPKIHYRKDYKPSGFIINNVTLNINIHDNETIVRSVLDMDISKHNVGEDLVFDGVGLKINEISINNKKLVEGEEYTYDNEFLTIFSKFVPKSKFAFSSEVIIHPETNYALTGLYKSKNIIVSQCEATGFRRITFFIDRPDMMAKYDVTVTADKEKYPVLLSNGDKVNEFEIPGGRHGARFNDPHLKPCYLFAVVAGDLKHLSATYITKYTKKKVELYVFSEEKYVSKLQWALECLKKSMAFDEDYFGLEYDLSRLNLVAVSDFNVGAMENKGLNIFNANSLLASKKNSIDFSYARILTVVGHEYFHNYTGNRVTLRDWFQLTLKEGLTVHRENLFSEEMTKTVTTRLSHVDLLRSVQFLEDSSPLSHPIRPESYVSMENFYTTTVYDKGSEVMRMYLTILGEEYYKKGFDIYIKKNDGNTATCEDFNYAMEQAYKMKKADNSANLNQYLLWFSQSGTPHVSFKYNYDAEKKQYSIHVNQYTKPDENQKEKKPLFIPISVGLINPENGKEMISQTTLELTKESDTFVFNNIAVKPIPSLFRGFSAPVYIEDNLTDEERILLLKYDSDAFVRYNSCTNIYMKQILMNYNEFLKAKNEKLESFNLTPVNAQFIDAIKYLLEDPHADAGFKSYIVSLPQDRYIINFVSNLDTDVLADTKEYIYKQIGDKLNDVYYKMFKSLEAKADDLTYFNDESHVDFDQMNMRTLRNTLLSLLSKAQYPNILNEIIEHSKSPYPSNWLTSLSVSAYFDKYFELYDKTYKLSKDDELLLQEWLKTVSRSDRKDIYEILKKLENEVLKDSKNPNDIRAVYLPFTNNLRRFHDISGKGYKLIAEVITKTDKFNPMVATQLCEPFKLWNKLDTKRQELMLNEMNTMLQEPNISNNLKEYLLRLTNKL

HEK293 [4] = test: Fluorescence-based counterscreen for potentiators or agonists of NPY-Y2: cell-based high-throughput dose response assay to identify inhibitors of cyclic nucleotide gated ion channel (CNGC) activity. In this assay, the parental HEK293 cell line transfected with a cyclic-nucleotide gated ion channel (CNGC)-based cAMP sensor is used to measure inhibition of isoproterenol-induced CNGC activity by test compound.; type: functional; conditions: Homo sapiens
[5] = target: T2, Neuropeptide Y receptor type 2 (Homo sapiens, UniProt P49146); test: Fluorescence-based cell-based high-throughput dose response assay for agonists of NPY-Y2. [Related pubchem assays: 1703 (Screening assay (CNGC inhibitors).), 1359 (Screening assay (NPY-Y2 potentiators or agonists).), 1304 (Screening assay (NPY-Y1 potentiators or agonists).), 1710 (Screening assay (NPY-Y2 agonists).), 1791 (Summary AID.)]; type: functional
T2 sequence (P49146 whole entry): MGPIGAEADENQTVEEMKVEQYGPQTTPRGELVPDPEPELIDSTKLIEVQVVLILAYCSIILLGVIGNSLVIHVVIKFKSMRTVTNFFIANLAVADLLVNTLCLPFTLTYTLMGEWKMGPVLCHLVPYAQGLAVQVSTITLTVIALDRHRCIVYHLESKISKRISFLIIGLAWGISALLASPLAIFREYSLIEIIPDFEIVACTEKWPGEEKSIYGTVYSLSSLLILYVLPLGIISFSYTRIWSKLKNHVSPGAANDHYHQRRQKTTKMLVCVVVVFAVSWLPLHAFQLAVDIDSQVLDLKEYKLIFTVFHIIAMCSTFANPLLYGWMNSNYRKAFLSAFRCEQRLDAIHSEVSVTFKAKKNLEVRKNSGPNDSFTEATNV

[6] = Luminescence Cell-Based Dose Response HTS to Identify Inhibitors of 5'UTR Stem-Loop Driven Prion Protein mRNA Translation in H4 Neuroglioblastoma Cells. [Related pubchem assays: 1827 (Project Summary), 1813 (Primary HTS)]; type: functional
[7] = alpha-synuclein stem-loop luciferase translation blockers – H4 neuroglioma cells, luminescence, confirmation (AID 1988); type: functional, cell-based
[8] = CCR5-tropic HIV-1 fusion blockers – cell-based, CCR5-tropic Env, dose response (AID 2279); type: functional
[9] = target: T3, Neuropeptide Y receptor type 1 (Homo sapiens, UniProt P25929); test: Fluorescence-based counterscreen for agonists of NPY-Y2: cell-based high-throughput dose response assay for agonists of NPY-Y1.; type: functional
T3 sequence (P25929 whole entry): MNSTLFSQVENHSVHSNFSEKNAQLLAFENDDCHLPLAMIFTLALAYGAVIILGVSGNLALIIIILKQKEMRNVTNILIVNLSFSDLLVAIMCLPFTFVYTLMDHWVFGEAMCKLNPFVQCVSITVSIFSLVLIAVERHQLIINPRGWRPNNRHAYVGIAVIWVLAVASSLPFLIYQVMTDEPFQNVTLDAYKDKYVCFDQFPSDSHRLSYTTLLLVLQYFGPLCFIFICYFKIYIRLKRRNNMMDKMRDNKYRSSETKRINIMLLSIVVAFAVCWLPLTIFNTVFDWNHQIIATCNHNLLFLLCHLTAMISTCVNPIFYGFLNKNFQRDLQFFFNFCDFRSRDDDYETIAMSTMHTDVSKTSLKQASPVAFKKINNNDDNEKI

BJ = test: growth inhibition of engineered Ras-driven BJ cells – cell-based, alamar blue fluorescence, cherrypicked samples, dose response (AID 2631); type: functional; conditions: Homo sapiens;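 note: confirmatory dose-response assay in RAS-dependent BJ fibroblasts engineered with TERT, LT and ST, with cytotoxicity read by fluorescence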
INS1 = test: INS-1E survival protection against cytokine death – cell-based, luminescence, retest, dose response (AID 449756); type: functional; conditions: Rattus norvegicus;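 note: cell death triggered by IL-1 beta plus TNF-alpha plus IFN-gamma mixture; protective hits raise ATP signal compared with cytokine alone wells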
CAAX prenyl protease 2 = CAAX prenyl protease 2 (Homo sapiens, UniProt Q9Y256); test: inhibition of Ras-converting CAAX protease Rce1 – biochemical, yeast membranes, quenched-peptide fluorescence, cherry-pick, dose response (AID 588849)
[10] = blockers of HIV-1 envelope-mediated cell-cell fusion – cherry-pick, dose response (AID 652057); type: functional, cell-based
[11] = viability loss in CEM21 cells – cell-based, CellTiter-Glo luminescence, cherry-picked, cytotoxicity control for viral fusion inhibitor project, dose response (AID 652042); type: functional;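 note: potency for signal decrease meaning cytotoxicity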
[12] = blockers of HIV-1 ZM109 envelope-driven cell-cell fusion – HeLa effector, CEM target cells, luciferase, cherry-pick, dose response (AID 652058); type: functional, cell-based;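 note: luciferase signal from HIV-1 Env mediated cell-cell fusion of effector and target cells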
Paired box protein Pax-8 = Paired box protein Pax-8 (Homo sapiens, UniProt Q06710); test: PAX8 transcriptional activity inhibition in RMG-I – RMG-I cells, luciferase, cherry-pick, dose response (AID 687027); type: functional, cell-based;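 note: luciferase reporter driven by Pax8 target thyroperoxidase promoter measured by SteadyGlo luminescence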
[13] = off-target signal loss in HeLa-CEM21 co-culture – HeLa F-luc CTL cells, cherry-picked, counter-screen for HIV-1 Env fusion inhibitor project, dose response (AID 652040); type: functional, cell-based;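 note: potency for signal decrease marking cytotoxic or nonspecific inhibition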
[14] = HIV-1 AD8 envelope cell-cell fusion blockers – cherry-pick, dose response (AID 652062); type: functional, cell-based;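 note: luciferase signal from cell-cell fusion driven by HIV-1 clade B AD8 Env; potency is for inhibitors of fusion seen as a drop in luminescence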
HEK293 [15] = test: HEK293T cell viability loss, resazurin readout – resazurin fluorescence, cytotoxicity control for NF-kB activator project, SAR follow-up (AID 493251); type: functional, cell-based; conditions: Homo sapiens, HEK293
Jurkat = test: SAR Analysis of small molecule inhibitors of T-cell specific antigen receptor-induced NF-kB activation in a Jurkat cell line using a luminescence assay - Set 2. [Related pubchem assays (depositor defined):AID435003, AID435012, AID465]; type: functional, cell-based; conditions: Homo sapiens
HEK293 [16] = test: SAR Analysis of small molecule inhibitors of T-cell specific antigen receptor-induced NF-kB activation in a HEK-293T cell line using a luminescence assay - Set 2. [Related pubchem assays (depositor defined):AID435003, AID435012, AID489026]; type: functional, cell-based; conditions: Homo sapiens

Sequence of CAAX prenyl protease 2 (Q9Y256 whole entry, the tested form may be a part): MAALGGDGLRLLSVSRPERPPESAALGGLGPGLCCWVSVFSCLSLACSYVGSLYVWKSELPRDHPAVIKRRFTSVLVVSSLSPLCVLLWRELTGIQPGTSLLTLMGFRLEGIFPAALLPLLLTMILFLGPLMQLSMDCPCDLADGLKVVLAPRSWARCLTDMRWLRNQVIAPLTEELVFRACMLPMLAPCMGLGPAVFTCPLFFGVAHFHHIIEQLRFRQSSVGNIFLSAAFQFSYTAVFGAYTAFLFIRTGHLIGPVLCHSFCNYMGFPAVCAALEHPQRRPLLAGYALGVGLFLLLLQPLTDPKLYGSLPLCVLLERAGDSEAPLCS
Sequence of Paired box protein Pax-8 (Q06710 whole entry, the tested form may be a part): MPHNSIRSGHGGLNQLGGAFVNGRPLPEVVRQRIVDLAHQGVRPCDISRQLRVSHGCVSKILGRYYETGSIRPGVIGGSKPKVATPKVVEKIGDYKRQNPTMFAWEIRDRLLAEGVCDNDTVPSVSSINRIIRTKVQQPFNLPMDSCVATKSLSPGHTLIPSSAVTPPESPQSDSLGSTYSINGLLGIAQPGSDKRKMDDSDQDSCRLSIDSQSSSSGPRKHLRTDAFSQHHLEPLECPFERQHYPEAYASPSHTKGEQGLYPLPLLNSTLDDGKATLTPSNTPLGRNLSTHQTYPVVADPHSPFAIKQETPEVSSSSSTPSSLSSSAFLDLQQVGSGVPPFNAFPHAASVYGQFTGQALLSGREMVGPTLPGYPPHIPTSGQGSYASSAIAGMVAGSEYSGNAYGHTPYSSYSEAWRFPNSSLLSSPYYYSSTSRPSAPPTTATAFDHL

O=c1c2ccccc2nc(/C=C/c2cc(Br)ccc2O)n1CCCO
IC50 (Vero [1]): > 25 µM (active) | CC50 (Vero [2]): 22.8 µM (active)

O=C(Nc1cc(S(=O)(=O)N2CCCCC2)ccc1Cl)c1ccccc1NS(=O)(=O)c1ccc(F)cc1
EC50 [3]: 13.8 µM (active) | IC50 (Aminopeptidase N): 44.9 µM (active) | EC50 (HEK293 [4]): 4.53 µM (active) | EC50 [5]: 25.6 µM (not active) | EC50 [6]: > 60 µM (not active) | EC50 [7]: 13.7 µM (active) | IC50 [8]: 2 µM (active) | EC50 [9]: 12.7 µM (not active) | EC50 (BJ): > 133 µM (inactive) | AC50 (INS1): 3.42 µM (active) | AC50 (CAAX prenyl protease 2): 20.7 µM (active) | AC50 [10]: 28.4 µM (active) | AC50 [11]: 32.9 µM (active) | AC50 [12]: 25.6 µM (active) | AC50 (Paired box protein Pax-8): 5.08 µM (active) | AC50 [13]: 6.21 µM (active) | AC50 [14]: 10.8 µM (active)

CCCOc1ccc(C(=O)Nc2ccc(NC(=O)c3cc4ccccc4o3)cc2)cc1
IC50 (HEK293 [15]): > 80 µM (inactive) | IC50 (Jurkat): > 79 µM (inactive) | IC50 (HEK293 [16]): > 80 µM (inactive)
